ChEMBL document CHEMBL3612057, “Discovery of indolizines containing triazine moiety as new leads for the development of antitumoral agents targeting mitotic events” (2015)
The source made the active and inactive calls. The calls are words filed in the database; no cut-off is given here.

Tests used:
ACHN = assay: Cytotoxicity against human ACHN cells assessed as growth inhibition at 10 uM after 24 hrs by SRB assay; format: functional; conditions: read-out: GI
NCI-H460 = assay: Cytotoxicity against human NCI-H460 cells assessed as growth inhibition at 10 uM after 24 hrs by SRB assay; format: functional
MCF7 = assay: Cytotoxicity against human MCF7 cells assessed as growth inhibition at 10 uM after 24 hrs by SRB assay; format: functional; conditions: MCF7, 24 h, read-out: GI
PC-3 = assay: Cytotoxicity against human PC3 cells assessed as growth inhibition at 10 uM after 24 hrs by SRB assay; format: functional
SR = assay: Cytotoxicity against human SR cells assessed as growth inhibition at 10 uM after 24 hrs by SRB assay; format: functional
Ovis aries = organism: Ovis aries; assay: Inhibition of sheep tubulin polymerization at 100 uM by fluorescence assay
RXF 393 = assay: Cytotoxicity against human RXF393 cells assessed as growth inhibition at 10 uM after 24 hrs by SRB assay; format: functional; conditions: RXF 393, 24 h, read-out: GI
Malme-3M = assay: Cytotoxicity against human MALME-3M cells assessed as growth inhibition at 10 uM after 24 hrs by SRB assay; format: functional; conditions: read-out: GI
CAKI-1 = assay: Cytotoxicity against human CAKI-1 cells assessed as growth inhibition at 10 uM after 24 hrs by SRB assay; format: functional
OVCAR-4 = assay: Cytotoxicity against human OVCAR4 cells assessed as growth inhibition at 10 uM after 24 hrs by SRB assay; format: functional; conditions: OVCAR-4, 24 h, read-out: GI
SF-539 = assay: Cytotoxicity against human SF539 cells assessed as growth inhibition at 10 uM after 24 hrs by SRB assay; format: functional
SF-295 = assay: Cytotoxicity against human SF295 cells assessed as growth inhibition at 10 uM after 24 hrs by SRB assay; format: functional
U-251 = assay: Cytotoxicity against human U251 cells assessed as growth inhibition at 10 uM after 24 hrs by SRB assay; format: functional
NCI/ADR-RES = assay: Cytotoxicity against human NCI/ADR-RES cells assessed as growth inhibition at 10 uM after 24 hrs by SRB assay; format: functional; conditions: read-out: GI
MDA-MB-231 = assay: Cytotoxicity against human MDA-MB-231 cells assessed as growth inhibition at 10 uM after 24 hrs by SRB assay; format: functional; conditions: MDA-MB-231, 24 h, read-out: GI
HOP-92 = assay: Cytotoxicity against human HOP92 cells assessed as growth inhibition at 10 uM after 24 hrs by SRB assay; format: functional
[1] = Cytotoxicity against human Hs578T cells assessed as growth inhibition at 10 uM after 24 hrs by SRB assay; format: functional; conditions: Hs-578T, read-out: GI
NCI-H522 = assay: Cytotoxicity against human NCI-H522 cells assessed as growth inhibition at 10 uM after 24 hrs by SRB assay; format: functional
HOP-62 = assay: Cytotoxicity against human HOP62 cells assessed as growth inhibition at 10 uM after 24 hrs by SRB assay; format: functional
TK-10 = assay: Cytotoxicity against human TK10 cells assessed as growth inhibition at 10 uM after 24 hrs by SRB assay; format: functional
SNB-75 = assay: Cytotoxicity against human SNB75 cells assessed as growth inhibition at 10 uM after 24 hrs by SRB assay; format: functional; conditions: SNB-75, 24 h, read-out: GI
HCT-116 = assay: Cytotoxicity against human HCT116 cells assessed as growth inhibition at 10 uM after 24 hrs by SRB assay; format: functional
OVCAR-8 = assay: Cytotoxicity against human OVCAR8 cells assessed as growth inhibition at 10 uM after 24 hrs by SRB assay; format: functional; conditions: OVCAR-8, 24 h, read-out: GI
SK-MEL-5 = assay: Cytotoxicity against human SK-MEL-5 cells assessed as growth inhibition at 10 uM after 24 hrs by SRB assay; format: functional
UACC-257 = assay: Cytotoxicity against human UACC257 cells assessed as growth inhibition at 10 uM after 24 hrs by SRB assay; format: functional
OVCAR-3 = assay: Cytotoxicity against human OVCAR3 cells assessed as growth inhibition at 10 uM after 24 hrs by SRB assay; format: functional; conditions: OVCAR-3, 24 h, read-out: GI
MDA-MB-435 = assay: Cytotoxicity against human MDA-MB-435 cells assessed as growth inhibition at 10 uM after 24 hrs by SRB assay; format: functional
CCRF-CEM = assay: Cytotoxicity against human CCRF-CEM cells assessed as growth inhibition at 10 uM after 24 hrs by SRB assay; format: functional
SK-MEL-28 = assay: Cytotoxicity against human SK-MEL-28 cells assessed as growth inhibition at 10 uM after 24 hrs by SRB assay; format: functional; conditions: SK-MEL-28, 24 h, read-out: GI
RPMI-8226 = assay: Cytotoxicity against human RPMI8226 cells assessed as growth inhibition at 10 uM after 24 hrs by SRB assay; format: functional
A549 = assay: Cytotoxicity against human A549 cells assessed as growth inhibition at 10 uM after 24 hrs by SRB assay; format: functional
786-0 = assay: Cytotoxicity against human 786-0 cells assessed as growth inhibition at 10 uM after 24 hrs by SRB assay; format: functional; conditions: 786-0, 24 h, read-out: GI
SK-OV-3 = assay: Cytotoxicity against human SKOV3 cells assessed as growth inhibition at 10 uM after 24 hrs by SRB assay; format: functional; conditions: SK-OV-3, 24 h, read-out: GI
K562 = assay: Cytotoxicity against human K562 cells assessed as growth inhibition at 10 uM after 24 hrs by SRB assay; format: functional
HL-60(TB) = assay: Cytotoxicity against human HL-60(TB) cells assessed as growth inhibition at 10 uM after 24 hrs by SRB assay; format: functional
UACC-62 = assay: Cytotoxicity against human UACC62 cells assessed as growth inhibition at 10 uM after 24 hrs by SRB assay; format: functional
NCI-H226 = assay: Cytotoxicity against human NCI-H226 cells assessed as growth inhibition at 10 uM after 24 hrs by SRB assay; format: functional
T47D = assay: Cytotoxicity against human T47D cells assessed as growth inhibition at 10 uM after 24 hrs by SRB assay; format: functional; conditions: read-out: GI

For `COc1nc(OC)nc(-c2cc(C(=O)c3cc(OC)c(OC)c(OC)c3)n3ccc(C)cc23)n1`, the inhibition of growth at 10 µM (ACHN) was 47%, the inhibition of growth at 10 µM (NCI-H460; NCI-H460, 24 h, read-out: GI) was 16% and the inhibition of growth at 10 µM (MCF7) was 73%. For the same compound, the inhibition of growth at 10 µM (PC-3; PC-3, 24 h, read-out: GI) was 36%, the inhibition of growth at 10 µM (SR; read-out: GI) was 74% and the inhibition (Ovis aries) was “inactive”. It also gave an inhibition of growth at 10 µM (RXF 393) of 41%, an inhibition of growth at 10 µM (Malme-3M) of 61% and an inhibition of growth at 10 µM (CAKI-1; CAKI-1, 24 h, read-out: GI) of 25%. For the same compound, the inhibition of growth at 10 µM (OVCAR-4) was 21%, the inhibition of growth at 10 µM (SF-539; SF-539, 24 h, read-out: GI) was 29% and the “growth inhibition (GI)” value (SF-295) was “inactive”. The inhibition of growth at 10 µM (U-251; U-251, 24 h, read-out: GI) was 15%, the inhibition of growth at 10 µM (NCI/ADR-RES) was 24% and the inhibition of growth at 10 µM (MDA-MB-231) was 25%. The “growth inhibition (GI)” value (HOP-92) was “inactive”, the inhibition of growth at 10 µM [1] was 35% and the inhibition of growth at 10 µM (NCI-H522; NCI-H522, 24 h, read-out: GI) was 43%. The inhibition of growth at 10 µM (HOP-62; HOP-62, 24 h, read-out: GI) was 28%, the “growth inhibition (GI)” value (TK-10) was “inactive” and the inhibition of growth at 10 µM (SNB-75) was 58%. It also gave an inhibition of growth at 10 µM (HCT-116; HCT-116, 24 h, read-out: GI) of 27%, an inhibition of growth at 10 µM (OVCAR-8) of 15% and an inhibition of growth at 10 µM (SK-MEL-5; SK-MEL-5, 24 h, read-out: GI) of 63%. For the same compound, the inhibition of growth at 10 µM (UACC-257; UACC-257, 24 h, read-out: GI) was 38%, the inhibition of growth at 10 µM (OVCAR-3) was 75% and the inhibition of growth at 10 µM (MDA-MB-435; MDA-MB-435, 24 h, read-out: GI) was 100%. The inhibition of growth at 10 µM (CCRF-CEM; read-out: GI) was 26%, the inhibition of growth at 10 µM (SK-MEL-28) was 40% and the inhibition of growth at 10 µM (RPMI-8226; RPMI-8226, 24 h, read-out: GI) was 30%. It also gave an inhibition of growth at 10 µM (A549; A549, 24 h, read-out: GI) of 36%, an inhibition of growth at 10 µM (786-0) of 20% and an inhibition of growth at 10 µM (SK-OV-3) of 29%. The inhibition of growth at 10 µM (K562; K562, 24 h, read-out: GI) was 56%, the inhibition of growth at 10 µM (HL-60(TB); HL-60, 24 h, read-out: GI) was 60% and the inhibition of growth at 10 µM (UACC-62; UACC-62, 24 h, read-out: GI) was 63%. For the same compound, the “growth inhibition (GI)” value (NCI-H226) was “inactive”.
With `COc1nc(-c2cc(C(=O)c3ccc(Br)cc3)n3ccccc23)[nH]c(=O)n1` the inhibition (Ovis aries) was “inactive”.
For `COc1nc(OC)nc(-c2cc(C(=O)c3ccc(C#N)cc3)n3ccccc23)n1`, the inhibition (Ovis aries) was “inactive”.
For `COc1nc(OC)nc(-c2cc(C(=O)c3ccc(-c4ccccc4)cc3)n3ccccc23)n1`, the inhibition (Ovis aries) was “inactive”.
In the case of `COc1nc(OC)nc(-c2cc(C(=O)c3ccc(Br)cc3)n3c(C)cccc23)n1`, the inhibition of growth at 10 µM (ACHN) is reported as 30%, the inhibition of growth at 10 µM (T47D) is reported as 19% and the “growth inhibition (GI)” value (NCI-H460) is reported as “inactive”. For the same compound, the inhibition of growth at 10 µM (MCF7) was 24%, the “growth inhibition (GI)” value (PC-3) was “inactive” and the “growth inhibition (GI)” value (SR) was “inactive”. For the same compound, the inhibition (Ovis aries) was “inactive”, the inhibition of growth at 10 µM (RXF 393) was 36% and the inhibition of growth at 10 µM (Malme-3M) was 18%. For the same compound, the “growth inhibition (GI)” value (CAKI-1) was “inactive”, the inhibition of growth at 10 µM (OVCAR-4) was 18% and the “growth inhibition (GI)” value (SF-539) was “inactive”. The inhibition of growth at 10 µM (SF-295; SF-295, 24 h, read-out: GI) was 22%, the “growth inhibition (GI)” value (U-251) was “inactive” and the inhibition of growth at 10 µM (NCI/ADR-RES) was 14%. The inhibition of growth at 10 µM (MDA-MB-231) was 27%, the “growth inhibition (GI)” value (HOP-92) was “inactive” and the inhibition of growth at 10 µM [1] was 22%. For the same compound, the “growth inhibition (GI)” value (NCI-H522) was “inactive”, the “growth inhibition (GI)” value (HOP-62) was “inactive” and the “growth inhibition (GI)” value (TK-10) was “inactive”. For the same compound, the inhibition of growth at 10 µM (SNB-75) was 75%, the “growth inhibition (GI)” value (HCT-116) was “inactive” and the inhibition of growth at 10 µM (OVCAR-8) was 29%. For the same compound, the “growth inhibition (GI)” value (SK-MEL-5) was “inactive”, the “growth inhibition (GI)” value (UACC-257) was “inactive” and the inhibition of growth at 10 µM (OVCAR-3) was 15%. For the same compound, the “growth inhibition (GI)” value (MDA-MB-435) was “inactive”, the “growth inhibition (GI)” value (CCRF-CEM) was “inactive” and the inhibition of growth at 10 µM (SK-MEL-28) was 14%. The “growth inhibition (GI)” value (RPMI-8226) was “inactive”, the “growth inhibition (GI)” value (A549) was “inactive” and the inhibition of growth at 10 µM (786-0) was 14%. The inhibition of growth at 10 µM (SK-OV-3) was 20%, the “growth inhibition (GI)” value (K562) was “inactive” and the “growth inhibition (GI)” value (HL-60(TB)) was “inactive”. The “growth inhibition (GI)” value (UACC-62) was “inactive” and the “growth inhibition (GI)” value (NCI-H226) was “inactive”.
